From patent US20250213560A1, “NITROGEN-CONTAINING HETEROCYCLIC COMPOUNDS HAVING PHENYL GROUP AND USES THEREOF” (BNH RESEARCH CO., LTD., priority 2022, published 2025)

Columns and labels:
[1] = tested on: 293T cells; assay: Cytotoxicity test (CCK-8 cell viability) in 293T cells; type: cell-based, human; details: 293T cell line
Description: Human undifferentiated neuroblastoma cell line SH-SY5Y and human embryonic kidney cell line (HEK)-293T were purchased from Korean Cell Line Bank (Korea) and Takara (Japan), respectively. Cells were grown in HyClone Minimal Essential Medium (MEM) and Dulbecco's Modified Eagle Medium (DMEM), respectively, supplemented with 10% (v/v) fetal bovine serum (FBS), penicillin (100 U/mL), and streptomycin ([…]). Cells were maintained in a humidified atmosphere of 95% air and 5% CO2 at 37° C. Cells were passaged 10 times at maximum. Cells were dissociated using 0.05% trypsin-EDTA solution and the cells were seeded in new culture dishes for maintenance.
To examine the cytotoxicity of compounds described herein in human cell lines, SH-SY5Y and 293T cells were used. Approximately 8,000 cells (for 293T) and 15,000 cells (for SH-SY5Y) were plated per well of a 96-well plate (SPL Life Sciences Co., Ltd., Pocheon, Korea). After incubating at 37° C. for 24 hours in a humidified atmosphere containing 5% CO2, the culture medium was replaced by a series of concentrations of test compounds diluted in the corresponding culture medium.
The time of co-incubation was 24 hours and six replicates were made for each measurement. Finally, 10 μL of CCK-8 reagent (Dojindo Laboratories, Rockville, MD) was added to each well, and after incubation at 37° C. for 3 minutes, the OD at 450 nm was measured using a multifunction microplate reader (Tecan Infinite M200 Pro). These measurements were compared to that of a control and expressed as a percentage of the control to calculate cell viability. The IC50 value was calculated using SPSS software. To do this, the absorbance of the blank wells with only growth medium is subtracted from the values or the wells with cells. The readout value of background (vehicle) was set as a 100% viability, and then the percent viability for each test solution was calculated.
The data was presented as the mean value and standard error of the mean (S.E.M.). Statistical analysis was performed with the one-way ANOVA with Tukey's post hoc test (GraphPad Prism 5 software package, version 5.02, GraphPad Software Inc. USA). Significance was accepted at p<0.05.
The cytotoxicity of the compound was evaluated by treating cells with BnH12003 and measuring cell viability.
By treating cells with various BnH12 series compounds and measuring cell viability using the experimental procedure described in Example 2, the cytotoxicity of the compounds was evaluated.

[2] = tested on: GluN2B; assay: GluN2B protein expression by Western blot in primary cortical neuron cells; type: cell-based, mouse
Description: Meanwhile, primary cortical neuron cells were isolated from cerebral cortices of 18-day-old mouse fetuses, incubated in prep media (composition (mM): NaCl 107.5, NaH2PO4 1, NaHCO333.5, glucose 11, HEPS 1%, penicillin-streptomycin 1%) containing 0.25% trypsin and DNasel for 30 minutes, dissociated into single cells, and seeded. Primary cortical neuron cells were grown in Neurobasal medium supplemented with 1% (v/v) B27, 1% penicillin (100 U/mL), streptomycin ([…]), and 1% Glutamax. Cells were maintained in a humidified atmosphere of 95% air and 5% CO2 at 37° C. Drug efficacy was evaluated after culturing primary cortical neuron cells for 14 days.
The amount of GluN2B reacted with the compound of the present disclosure was measured using Western blot. The fetal cerebral cortex was extracted from mice at 17 days of gestation, dissociated into single cells, cultured for 13 days, and treated with BnH drugs for 24 hours. The drug-treated cells were subjected to protein lysate preparation using RIPA protein lysis buffer containing protease and phosphatase inhibitors. The protein concentration was determined using a BCA protein assay kit (Pierce Biotechnology) using bovine serum albumin as a standard. Equal amounts of protein (20 μg per lane) were separated by electrophoresis on SDS-polyacrylamide gels at 90 V for 2 hours, then transferred from the SDS-polyacrylamide gel to PVDF membrane at 100 V for 1 hour. Then, primary reaction with GluN2B antibody (ab65783, Abcam) was performed at 4° C. for 1 day, washed three times at 10-minutes intervals with 1×PBT, and secondary reaction was performed with anti-mouse antibody (sc-2357, Santa Cruz) for 1 hour, followed by washing three times at 10-minutes intervals with 1×PBT. Western blotting was performed as described above to confirm GluN2B protein expression. Subsequently, each blot was re-probed using anti-β-actin antibody (sc-47778, Santa Cruz). Housekeeping protein B-actin was detected as a normalization control.
The increase and decrease of BnH12 series were confirmed by setting the vehicle to 1 (N for each group was 3 or more).
Using the experimental procedure described in Example 3, it was determined whether various BnH12 series compounds increase GluN2B expression, and the results are shown in Table 5. These in vitro experimental results are expressed as relative values to the group (vehicle) that was not treated with the compound, with the effect of the group set to 1.

Compound	Cell viability test results (CCK) 10 uM [1] [%<]	Cell viability test results (CCK) 100 uM [1] [%<]	GluN2B expression effect (in words) ([2]; compared to vehicle / other compounds, Table 5)	Western blot results Mean (GluN2B expression) ([2]; relative value, vehicle set to 1, primary cortical neurons treated for 24 hours)
6-Ethyl-1-(2-(4-(pyrimidin-5-yl)phenyl) acetyl) piperidine-3-carboxylic acid [BnH12097]	90	85	excellent effects	2.625
C[C@H]1CC[C@@H](C(=O)O)CN1C(=O)Cc1ccc(-c2ccc(F)cc2)cc1 [BnH12002, (3R,6S)-1-(2-(4′-fluoro-8 1,l′-biphenyl9-4-yl)acetyl)-6-methylpiperidine-3-carboxylic acid]	90	95	–	–
O=C(NO)[C@H]1CCCN1C(=O)Cc1ccc(-c2cncnc2)cc1 [BnH12015, (R)-N-hydroxy-1-(2-(4-(pyrimidin-5-yl)phenyl)acetyl) pyrrolidine-2-carboxamide]	99	99	–	–
C[C@H]1CC[C@@H](C(=O)O)CN1C(=O)Cc1ccc2nccnc2c1 [BnH12036, (3R,6S)-6-methyl-1-(2-(quinoxalin-6-yl)acetyl) piperidine-3-carboxylic acid]	95	95	–	–
C[C@H]1CC[C@@H](C(=O)O)CN1C(=O)Cc1ccc2c(c1)OCCO2 [BnH12037]	99	99	–	–
C[C@H]1CC[C@@H](C(=O)O)CN1C(=O)Cc1ccc(-c2ccccc2)cc1 [BnH12042]	95	90	–	–
C[C@H]1CC[C@@H](C(=O)O)CN1C(=O)Cc1ccc(-c2ccncc2)cc1 [BnH12043, (3R,6S)-6-methyl-1-(2-(4-(pyridin-4-yl)phenyl)acetyl) piperidine-3-carboxylic acid]	99	99	–	–
C[C@H]1CC[C@@H](C(=O)O)CN1C(=O)Cc1ccc(-c2ccccn2)cc1 [BnH12044, (3R,6S)-6-methyl-1-(2-(4-(pyridin-2-yl)phenyl)acetyl) piperidine-3-carboxylic acid]	80	75	–	–
C[C@H]1CC[C@@H](C(=O)O)CN1C(=O)Cc1ccc(-c2ncc(F)cn2)cc1 [BnH12049, (3R,6S)-1-(2-(4-(5-fluoropyrimidin-2-yl)phenyl)acetyl)-6-methylpiperidine-3-carboxylic acid]	90	85	–	–
C[C@H]1CC[C@@H](C(=O)O)CN1C(=O)Cc1ccc(-c2cnc(C3CC3)nc2)cc1 [BnH12052, (3R,6S)-1-(2-(4-(2-cyclopropylpyrimidin-5-yl)phenyl)acetyl)-6-methylpiperidine-3-carboxylic acid]	80	75	–	–
C[C@H]1CC[C@@H](C(=O)O)CN1C(=O)Cc1ccc(-c2ccncn2)cc1 [BnH12054, (3R,6S)-6-methyl-1-(2-(4-(pyrimidin-4-yl)phenyl)acetyl) piperidine-3-carboxylic acid]	99	99	–	–
C[C@H]1CC[C@@H](C(=O)O)CN1C(=O)Cc1ccc(-c2cccs2)cc1 [BnH12055, (3R,6S)-6-methyl-1-(2-(4-(thiophen-2-yl)phenyl)acetyl) piperidine-3-carboxylic acid]	90	60	–	–
C[C@H]1CC[C@@H](C(=O)O)CN1C(=O)Cc1ccc(-c2ccco2)cc1 [BnH12056, (3R,6S)-1-(2-(4-(furan-2-yl)phenyl)acetyl)-6-methylpiperidine-3-carboxylic acid]	95	90	–	–
C[C@H]1CC[C@@H](C(N)=O)CN1C(=O)Cc1ccc(-c2ncc(F)cn2)cc1 [BnH12059, (3R,6S)-1-(2-(4-(5-fluoropyrimidin-2-yl)phenyl)acetyl)-6-methylpiperidine-3-carboxamide]	90	70	–	–
C[C@H]1CC[C@@H](C(=O)O)CN1C(=O)Cc1ccc(-c2ccc([N+](=O)[O-])cc2)cc1 [BnH12077, (3R,6S)-6-methyl-1-(2-(4'-nitro-[1,1'-biphenyl]-4-yl)acetyl)piperidine-3-carboxylic acid]	99	60	–	–
C[C@H]1CC[C@@H](C(=O)O)CN1C(=O)c1ccc(-c2cccnc2)cc1 [BnH12080, (3R,6S)-6-methyl-1-(4-(pyridin-3-yl)benzoyl) piperidine-3-carboxylic acid]	85	85	–	–
COc1ccc(-c2ccc(CC(=O)N3C[C@H](C(=O)O)CC[C@@H]3C)cc2)cn1 [BnH12081, (3R,6S)-1-(2-(4-(6-methoxypyridin-3-yl)phenyl)acetyl)-6-methylpiperidine-3-carboxylic acid]	85	70	–	–
C[C@H]1CC[C@@H](C(=O)O)CN1C(=O)Cc1ccc(-c2ccc(C3CC3)nc2)cc1 [BnH12082, (3R,6S)-1-(2-(4-(6-cyclopropylpyridin-3-yl)phenyl)acetyl)-6-methylpiperidine-3-carboxylic acid]	90	90	–	–
C[C@H]1CC[C@@H](C(=O)O)CN1C(=O)Cc1ccc(-c2ccc(C(F)(F)F)nc2)cc1 [BnH12083, (3R,6S)-6-methyl-1-(2-(4-(6-(trifluoromethyl)pyridin-3-yl)phenyl)acetyl) piperidine-3-carboxylic acid]	95	75	–	–
Cc1ccc(-c2ccc(CC(=O)N3C[C@H](C(=O)O)CC[C@@H]3C)cc2)cn1 [BnH12084, (3R,6S)-6-methyl-1-(2-(4-(6-methylpyridin-3-yl)phenyl)acetyl) piperidine-3-carboxylic acid]	80	70	–	–
C[C@H]1CC[C@@H](C(=O)O)CN1C(=O)Cc1ccc(-c2ccc(-c3ccccc3)nc2)cc1 [BnH12087, (3R,6S)-6-methyl-1-(2-(4-(6-phenylpyridin-3-yl)phenyl)acetyl) piperidine-3-carboxylic acid]	85	45	–	–
